Entries after “also recorded” stand apart in the source; their conditions may differ. Peptide text beside a SMILES is read from it.
Key:
[1] = system: MZL cell lines (VL51, Karpas1718) and resistant derivatives; experiment: In vitro cytotoxic activity (MTT, 72 h), summary over the MZL cell line panel; type: cell-based; settings: for activity in resistant models: derivatives resistant to BTK, PI3Kδ or PI3Kα/δ inhibitors
Method: For in vitro testing, we used two human MZL cell lines, VL51 and Karpas1718, along with derivative clones rendered resistant by prolonged exposure to the BTK inhibitor ibrutinib, the PI3Kδ inhibitor idelalisib, or the PI3Kα/δ inhibitor copanlisib (Table S1; methods described in the Supporting Information). […] The calculated IC50 values ranged from 5 to 10 µM (Table S2). […] These findings were validated by treating lymphoma cells and peripheral blood mononuclear cells (PBMCs) in parallel. […] While acquired resistance to BTK or PI3K inhibitors often involves secondary mutations in the drug‐binding site, activation of alternative kinases, or evasion of apoptosis through upregulation of anti‐apoptotic proteins, these adaptations are unlikely to protect tumor cells from AMP‐mediated membrane disruption. […]
(§1) The established human cell lines VL51 1 and Karpas1718 2, derived from bona fide marginal zone lymphomas (MZL), and their derivatives with secondary resistance obtained by long exposure to the BTK inhibitor ibrutinib, the PI3Kδ inhibitor idelalisib or the PI3Kα/δ inhibitor copanlisib (three from VL51 3-5, and one from Karpas1718 6). Cell lines were cultured in RPMI supplemented with fetal bovine serum (FBS) (10%) and penicillin-streptomycin-neomycin (≈5,000 units penicillin, 5 mg streptomycin, and 10 mg neomycin/mL; Sigma-Aldrich, Darmstadt, Germany). Cell line identities were confirmed by periodic short tandem repeat (STR) DNA fingerprinting using the Promega GenePrint 10 System kit (B9510).
(§2) Cells were regularly tested for mycoplasma negativity using the MycoAlert Mycoplasma Detection Kit (Lonza, Visp, Switzerland).
(§3) […] Purity (>95%) was confirmed by reverse-phase high-performance liquid chromatography (RP-HPLC) while molecular masses were verified by mass spectrometry. Peptides were dissolved in nuclease-free water, and 2 mM stock solutions were prepared 7.
(§4) Antarctic peptides were synthesized by Caslo Aps (Caslo Aps Kongens, Lyngby, Denmark) with 98% purity. Purity was confirmed by reverse-phase high-performance liquid chromatography (RP-HPLC), and molecular masses were verified by mass spectrometry. As previously reported, the peptide stock concentration in nuclease-free water (1 mM) was determined spectrophotometrically.
(§5) In vitro cytotoxic activity
(§6) Cells were manually seeded into 96-well plates (VL51, 10’000 cells per well; SSK41, 20’000 cells per well; Karpas1718, 30’000 cells per well). Treatments were applied manually, and cell viability was assessed after 72 hours using 3-(4,5-dimethylthiazol-2-yl)-2,5-diphenyltetrazolium bromide (MTT).
(§7) After a 4-hour incubation, the reaction was terminated by adding sodium dodecyl sulfate (SDS) lysis buffer. Plates were analyzed with Cytation3, and IC50s were calculated using the 4-parameter logistic model (R environment or GraphPad Prism, Version 10.6.1). Antarctic peptides were tested at 40μM, with 1:2 dilutions down to 625 nM. Temporins were tested at 100μM, with 1:5 dilutions down to 32 nM. […]

VL51 cells = type: cell-based, human; settings: 72 h
Method: as §1, §2, §3, §4, §5, §6, §7

[2] = system: Karpas1718-Idel (idelalisib-resistant Karpas1718) cells; type: cell-based, human; settings: 72 h
Method: as §1, §2, §3, §4, §5, §6, §7

[3] = system: VL51-Copa (copanlisib-resistant VL51) cells; type: cell-based, human; settings: 72 h
Method: as §1, §2, §3, §4, §5, §6, §7

Karpas1718 cells = type: cell-based, human; settings: 72 h
Method: as §1, §2, §3, §4, §5, §6, §7

[4] = system: VL51-Ibru (ibrutinib-resistant VL51) cells; type: cell-based, human; settings: 72 h
Method: as §1, §2, §3, §4, §5, §6, §7

[5] = system: VL51-Idel (idelalisib-resistant VL51) cells; type: cell-based, human; settings: 72 h
Method: as §1, §2, §3, §4, §5, §6, §7

PBMCs = experiment: Cell death and membrane integrity by Annexin V/PI staining; type: cell-based; settings: 10 µM, 1 and 2 h, PBMCs treated in parallel, flow cytometry
Method: as §1
Cells were regularly tested for mycoplasma negativity using the MycoAlert Mycoplasma Detection Kit (Lonza, Visp, Switzerland). […]
Antarctic peptides were synthesized by Caslo Aps (Caslo Aps Kongens, Lyngby, Denmark) with 98% purity. […] As previously reported, the peptide stock concentration in nuclease-free water (1 mM) was determined spectrophotometrically. […]
Subsequently, cells were stained with Annexin V and propidium iodide (PI) (Annexin V FITC Apoptosis Detection Kit, BMS500FI-300, Life Technologies) following the manufacturer ’s instructions and analyzed through flow cytometry and immunofluorescence (Leica Thunder microscope). […]

Karpas1718-Idel cells = experiment: as above; type: cell-based, human; settings: 10 µM, 1 and 2 h, flow cytometry
Method: as §1, §2, §3
as §4, with “spectrophotometrically. […]” for “spectrophotometrically.”
Subsequently, cells were stained with Annexin V and propidium iodide (PI) (Annexin V FITC Apoptosis Detection Kit, BMS500FI-300, Life Technologies) following the manufacturer ’s instructions and analyzed through flow cytometry and immunofluorescence (Leica Thunder microscope).
PBMCs. Flow cytometric (A) and immunofluorescence (B) analyses of Annexin V/PI staining in Karpas1718-Idel cells and PBMCs after 1- and 2-hour treatments with W-trematocine or Temporin L at 10 µM. (B) Representative images (100x magnification) show brightfield, Annexin V (green), and PI […]

rabbit erythrocytes = settings: ref [9]; cited from earlier work
nonmalignant cells = settings: prior studies; ref prior studies; cited from earlier work
From the text: ABSTRACT Introduction Marginal zone lymphoma (MZL) is an indolent yet incurable B‐cell malignancy in which targeted agents such as BTK and PI3K inhibitors frequently fail due to resistance or toxicity. […] Methods Peptides were synthesized and tested for their anti‐proliferative activity in MZL cell lines. Results We evaluated the antitumor activity of seven natural AMPs, including Antarctic fish–derived trem ...

[6] = system: primary human fibroblasts; settings: up to 25 µM, 24 h, ref [9]; cited from earlier work

SMILES	anti-proliferative activity (in words) ([1]; MZL cell lines VL51, Karpas1718 and resistant derivatives)	cytotoxic effect ([1]; concentrations up to 50 µM, MZL cell lines)	IC50 (VL51 cells) [µM]	IC50 [2] [µM]	IC50 [3] [µM]	IC50 (Karpas1718 cells) [µM]	IC50 [4] [µM]	IC50 [5] [µM]	activity in resistant models [1]	sensitivity of PBMCs (Annexin V/PI staining) (PBMCs; listed as temporin L)	anti-lymphoma activity (Annexin V/PI staining) (Karpas1718-Idel cells)	anti-lymphoma activity (Annexin V/PI staining) (Karpas1718-Idel cells; listed as temporin L)	IC50 ([1]; 72 h) [µM]	hemolysis (rabbit erythrocytes)	toxicity toward nonmalignant cells (nonmalignant cells)	sensitivity of PBMCs (Annexin V/PI staining) (PBMCs)	cytotoxicity [6]
CSCC[C@H](NC(=O)CNC(=O)[C@H](Cc1c[nH]cn1)NC(=O)[C@@H](NC(=O)[C@H](CCCNC(=N)N)NC(=O)[C@H](CCC(=O)O)NC(=O)[C@H](C)NC(=O)[C@H](C)NC(=O)[C@@H](NC(=O)[C@H](CC(C)C)NC(=O)[C@H](C)NC(=O)[C@H](Cc1c[nH]cn1)NC(=O)CNC(=O)[C@@H](NC(=O)[C@H](Cc1c[nH]cn1)NC(=O)[C@H](CCCCN)NC(=O)[C@H](Cc1c[nH]c2ccccc12)NC(=O)[C@H](Cc1ccccc1)NC(=O)[C@H](CCC(=O)O)NC(=O)[C@@H](N)Cc1ccccc1)C(C)C)[C@@H](C)O)C(C)C)C(=O)N[C@@H](CC(C)C)C(=O)N[C@H](C(=O)NCC(=O)O)[C@@H](C)O [Chionodracine] (H-FEFWKHVGHALTAAERVHGMLTG-OH; N-terminus and C-terminus assumed)	inactive	no measurable cytotoxic effect	> 40	> 40	> 40	> 40	> 40	> 40									
CC[C@H](C)[C@H](NC(=O)CNC(=O)[C@H](CO)NC(=O)[C@H](CC(C)C)NC(=O)[C@@H](NC(=O)[C@H](CCCNC(=N)N)NC(=O)CNC(=O)[C@@H](NC(=O)[C@H](CC(C)C)NC(=O)[C@@H]1CCCN1C(=O)[C@H](CC(C)C)NC(=O)[C@@H](N)Cc1ccccc1)[C@@H](C)CC)C(C)C)C(=O)N[C@@H](CC(C)C)C(N)=O [Temporin A] (H-FLPLIGRVLSGIL-NH2; N-terminus and C-terminus assumed)			32	49	48.8	47.4	48.5	27.5									
CC[C@H](C)[C@H](NC(=O)[C@@H]1CCCN1C(=O)[C@H](CC(C)C)NC(=O)[C@@H](N)CC(C)C)C(=O)N[C@H](C(=O)NCC(=O)N[C@@H](CC(N)=O)C(=O)N[C@@H](CC(C)C)C(=O)N[C@@H](CC(C)C)C(=O)N[C@@H](CCCCN)C(=O)N[C@@H](CO)C(=O)N[C@@H](CC(C)C)C(=O)N[C@@H](CC(C)C)C(N)=O)C(C)C [Temporin B] (H-LLPIVGNLLKSLL-NH2; N-terminus and C-terminus assumed)			38.2	71.4	47.7	44.1	45.4	31.6									
CC[C@H](C)[C@H](NC(=O)CNC(=O)[C@H](CC(N)=O)NC(=O)[C@H](CC(C)C)NC(=O)[C@@H](NC(=O)[C@H](CCCNC(=N)N)NC(=O)CNC(=O)[C@@H](NC(=O)[C@@H](NC(=O)[C@@H]1CCCN1C(=O)[C@H](Cc1ccccc1)NC(=O)[C@@H](N)Cc1ccccc1)C(C)C)[C@@H](C)CC)[C@@H](C)CC)C(=O)N[C@@H](CC(C)C)C(N)=O [Temporin G] (H-FFPVIGRILNGIL-NH2; N-terminus assumed)			35.2	101	26.5	31	38.1	28.2									
CC[C@H](C)[C@H](NC(=O)[C@H](CCCNC(=N)N)NC(=O)CNC(=O)[C@H](CC(C)C)NC(=O)[C@H](Cc1ccccc1)NC(=O)[C@H](CCCCN)NC(=O)[C@H](CO)NC(=O)[C@H](Cc1ccccc1)NC(=O)[C@H](Cc1c[nH]c2ccccc12)NC(=O)[C@H](CCC(N)=O)NC(=O)[C@@H](NC(=O)[C@@H](N)Cc1ccccc1)C(C)C)C(=O)N[C@@H](CC(C)C)C(N)=O [Temporin L] (H-FVQWFSKFLGRIL-NH2)			8.9	10.1	7.4	7.5	9.6	6.4	maintaining full activity in all resistant models	markedly less sensitive	active in lymphoma cells	potent anti‐lymphoma activity					
CC[C@H](C)[C@H](NC(=O)CNC(=O)[C@H](CCCNC(=N)N)NC(=O)[C@H](Cc1ccc(O)cc1)NC(=O)[C@H](CC(C)C)NC(=O)[C@H](CCC(N)=O)NC(=O)[C@H](CO)NC(=O)[C@H](Cc1ccccc1)NC(=O)[C@@H](N)Cc1ccccc1)C(=O)N[C@H](C(=O)N[C@@H](CO)C(=O)N[C@H](C(=O)NCC(=O)N[C@@H](CCCCN)C(=O)N[C@@H](Cc1c[nH]cn1)C(=O)N[C@H](C(=O)N[C@@H](Cc1c[nH]cn1)C(=O)NCC(=O)N[C@@H](CC(C)C)C(=O)N[C@@H](CC(C)C)C(=O)N[C@@H](CO)C(=O)NCC(=O)O)[C@@H](C)CC)C(C)C)C(C)C [Trematocine-1] (H-FFSQLYRGIVSVGKHIHGLLSG-OH; N-terminus and C-terminus assumed)			> 40	> 40	> 40	> 40	> 40	> 40					25 to 50				
CC[C@H](C)[C@H](NC(=O)CNC(=O)[C@H](CCCNC(=N)N)NC(=O)[C@H](CC(C)C)NC(=O)[C@H](CC(C)C)NC(=O)[C@H](Cc1c[nH]cn1)NC(=O)CNC(=O)[C@H](Cc1ccccc1)NC(=O)[C@@H](N)Cc1c[nH]c2ccccc12)C(=O)N[C@H](C(=O)N[C@@H](CO)C(=O)N[C@H](C(=O)NCC(=O)N[C@@H](CCCCN)C(=O)N[C@@H](Cc1c[nH]cn1)C(=O)N[C@H](C(=O)N[C@@H](Cc1c[nH]cn1)C(=O)NCC(=O)N[C@@H](CC(C)C)C(=O)N[C@H](C(=O)N[C@H](C(=O)NCC(=O)O)[C@@H](C)O)[C@@H](C)CC)[C@@H](C)CC)C(C)C)C(C)C [W-Trematocine] (H-WFGHLLRGIVSVGKHIHGLITG-OH; N-terminus and C-terminus assumed)			5.5	6.5	7.1	5	6.5	7.6	maintaining full activity in all resistant models		active in lymphoma cells; also recorded: potent anti‐lymphoma activity			minimal hemolysis	minimal toxicity	markedly less sensitive	negligible cytotoxicity

— paper PMC13239830, “Antimicrobial Peptides Induce Cell Death in Marginal Zone Lymphoma Models Resistant to Targeted Therapies” (EJHaem, 2026)
